Assay results reported in a melting point compilation (Tetko et al.; mined from patent text by program, amines drawn as free bases though some values may be those of a salt).

SMILES	melting point [°C]
CCOc1cc(C=O)cc2c1OC1(C=C2Br)CCN(C(=O)OC(C)(C)C)CC1	148 to 150
Cc1oc(-c2ccccc2)nc1COc1ccc(/C=C/CO)cc1	134 to 135
O=C1NC(=O)C(Cc2ccc(OCCON=Cc3ccc(-c4ccccc4)cc3)cc2)S1 (stereo not drawn)	124 to 127
CCOCCOc1ccc(COc2ccc3c(c2)C=C(C(=O)O)CCS3(=O)=O)cc1	256 to 258
CC=CC(O)c1c(C(C)C)nc(C(C)C)c(CCCCC)c1-c1ccc(F)cc1 (stereo not drawn)	70 to 72
COc1cc(CCCN2CCc3cc(OC)c(OC)cc3C2)ccc1NC(=O)c1cccc2c(=O)c3c(OC)ccc(OC)c3[nH]c12	140
CCNC(=N)N1CCc2[nH]cnc2C1CC (stereo not drawn)	275
CCn1nc(-c2cccc(Cl)c2)c(C(C)=O)c(Nc2cccc3cccnc23)c1=O	127 to 128
CC(C)(C)OC(=O)COc1ccc([N+](=O)[O-])cc1F	62 to 64
CCN(CC)CCNc1ccc2c3c(nn2CCO)-c2c(O)ccc(O)c2C(=O)c13	231 to 234
CCn1cc(C(=O)O)c(=O)c2cc(F)c(F)c(C)c21	219 to 221
CCC(C)C(=O)Nc1nn(C)c2c1sc1cc(N)ccc12 (stereo not drawn)	196 to 197
N#CCCNC(=O)c1cccc(-c2ccc3c(c2)N(c2ccc(Cl)c(Cl)c2)CC3)c1	166 to 196
Clc1ccc(Nc2nnc(Cc3ccncc3)c3c2CCCC3)cc1	258 to 261
COc1ccn2nc(SCc3ccccc3)nc2n1	126 to 128
CCOP(=O)(CNCc1cccnc1-c1cc(C(C)(C)C)c(O)c(C(C)(C)C)c1)OCC	100 to 101
COc1ccc(-c2ccccn2)c(NC(=O)CC(C)NC(=O)OC(C)(C)C)c1 (stereo not drawn)	143 to 145
Cc1ccc(C(=O)C2CCN(CCc3c[nH]c4ccccc34)CC2)cc1C	172 to 173
CCN(CC)C(=O)c1cccnc1OC	83
COC(=O)c1ccc2c(Br)cccc2c1	65 to 68
N=C(NCCOc1cccc2[nH]c3ccccc3c12)c1cccs1	180 to 181
Cc1sc([Si](C)(C)C)cc1C1=C(c2cc([Si](C)(C)C)sc2C)C(F)(F)C(F)(F)C1(F)F	91.4
N#CC(C#N)=C(O)c1ccc(Oc2ccccc2)cc1	160 to 162
CCCCCCCCCCOc1ccc(C(=O)OCC(=O)OC)cc1	30 to 32
COc1ccc(-c2cc(NCc3ccccc3)nnc2-c2ccc(OC)cc2)cc1	125 to 126

SMILES	melting point [°C]
CC(C)(C)NC(=O)c1nn(-c2ccc(C(C)(C)C)cc2)c2c1C1CCC2C1 (stereo not drawn)	148 to 150
CC(C)CNC(=O)COc1ccn2nc(-c3ccccc3)c(-c3ccc(=O)n(C(C)C)n3)c2c1	168
CCCc1cn(CC(=O)O)nc1OCCCc1cn(-c2ccc(C(F)(F)F)cn2)nc1OCC	134 to 135
COc1cc(N2CCC(Br)C2=O)ccc1Cl (stereo not drawn)	113 to 115
CC(C)(C)OC(=O)C=Cc1cncc2ccccc12	81 to 83
COc1ccc(CCNC(N)=O)cc1OC1CCCC1	136 to 137
Cc1ccc(C)c2c(OCCNC(=O)OC(C)(C)C)noc12	78 to 79
CC(C)(O)Cc1cccc(C(F)(F)F)c1	55 to 56
C=CC[C@H](CC(=O)OC(C)(C)C)C(=O)N[C@H](C(=O)OCc1ccccc1)C(C)(C)C	55 to 57
Cn1ccnc1S(=O)c1ccc(Cl)cc1 (stereo not drawn)	96 to 97
CCOC(=O)COc1ccc(N)c(C)c1	198 to 200
CCCOc1ccccc1C1C(C(=O)OCC)=C(CCC)Nc2n[nH]cc21 (stereo not drawn)	205
CC(=O)C=CS(=O)(=O)N1C=C(Cl)C=NC1	95
NN(CCO)c1ccc(-c2ccc(Cl)cc2)nn1	172 to 174
O=C(Nc1ccc(Cc2nnn[nH]2)cc1)C(F)(F)C(F)(F)C(F)(F)C(F)(F)C(F)(F)C(F)(F)C(F)(F)C(F)F	188 to 190
COc1cc(Cc2nc(NC(C)(C)C)c3c(C)c(C#N)sc3n2)cc(OC)c1OC	146 to 148
C/C(=C(\C#N)C(=S)/N=C/N(C)C)N1CCCN(c2ccc(C(F)(F)F)cc2)CC1	251 to 253
CCCCCCOc1ccc2[nH]c(SC(C)(C(=O)O)c3ccccc3)cc2c1 (stereo not drawn)	100 to 102
CC[C@H](C1CC1)n1cc(Cl)nc(N2CCc3cc(Br)cc(Cl)c32)c1=O	126 to 127
COC(=O)c1cc(OC(F)F)cnc1C1=NC(C)(C(C)C)C(=O)N1 (stereo not drawn)	104 to 105
CCCCCc1cc(O)c2c(c1)OC(C)(C)C1=C2CC(C)(C)S1	109 to 110
COc1ccc(Cn2ncc3nc(O)nc(O)c32)cc1	288 to 292
Cc1ccc(S(=O)(=O)N2CCC[C@H]2C(=O)N[C@@H](Cc2ccc(OCC(=O)NC(C)(C)C)cc2)C(=O)O)cc1	88 to 89
CCNc1ncn(CC)c2nc(C3CC3)nc1-2	103 to 105
Clc1ccc2c(c1)N=C(NCCCn1ccnc1)c1ccccc1N2	228 to 230

SMILES	melting point [°C]
CCCCCCCCCCNC(=O)c1ccc(C(=O)NCCCCCCCCCC)c(N(CC(=O)O)CC(=O)O)c1	135 to 136
O=C1c2cc(O)ccc2OCC1Cc1c[nH]c2ccccc12 (stereo not drawn)	188 to 190
Cc1ncc([N+](=O)[O-])n1CCN1C(=O)C2CC=CCC2C1=O (stereo not drawn)	118 to 123
CC(C)CNC1=NS(=O)(=O)c2ccc(Cl)cc2N1	298 to 301
Cc1ccccc1-c1noc2c(Cl)c(OCC(=O)O)ccc12	179 to 181
CC1(C)CCC(C)(C)c2cc(C#CCc3ccc(C(=O)O)cc3)ccc21	159 to 160
COc1cc(N[C@H]2CC[C@H](NC3CCCC3)CC2)c(Cl)cc1C(N)=O	169 to 171
CSc1nc(Cl)c(-c2c(F)cc(F)cc2F)c(NC(C)C)n1	112 to 116
COC(=O)c1ccc(C=CC(=O)N2CCc3c([nH]c4ccccc34)C2c2ccc3c(c2)OCCO3)cc1 (stereo not drawn)	136
CC1CCCC(C)N1Cc1ccc2cc(NC(=O)c3ccc(-c4ccc(Cl)cc4)cc3)ccc2c1 (stereo not drawn)	220 to 222
COc1ccc(-c2nc(C(=O)N(C)C)c3c4ccc(Cl)cc4n(C)c3n2)cn1	267 to 268
Cc1cc(C2(C(F)(F)F)CC(c3ccc(C(N)=O)cc3)=NO2)ccc1NC(=O)c1cccc(I)c1C(=O)NC(C)C (stereo not drawn)	173 to 175
CC1=NC(=NOC(=O)NC2CCC2)SC1(C)C	94 to 96
Cc1c(NC(=O)c2ccc(-c3ccc(F)cc3)cc2)ccc2cc(CN3CCC(CC(=O)N4CCCCC4)CC3)cnc12	189 to 190
Cc1nc(NC(=O)c2cnn3c(C(F)(F)F)cc(-c4ccc(C(F)(F)F)cc4)nc23)sc1S(=O)(=O)NC(C)(C)CO	257
CCCCc1nn(CCC)c(C(=O)O)c1Cc1ccc(C2(C(=O)O)CC=CC2)s1	121 to 122
Nc1nonc1-c1nc2ccccc2n1CC(=O)c1ccc(Cl)c([N+](=O)[O-])c1	198 to 200
CC(C)(Oc1ccc(CCC(=O)c2ccc(-c3ccc(C(F)(F)F)cc3)s2)c(F)c1F)C(=O)O	165 to 166
O=C(/C=C/[C@@H]1[C@H]2CC(=O)O[C@H]2C[C@H]1OC(=O)c1ccc(-c2ccccc2)cc1)CCc1ccccc1	129 to 130
O=C1c2ccccc2C(=O)N1[C@@H]1C=CCC[C@@H]1O (racemic)	112 to 114
CCCCC[C@H]1CC[C@H](c2ccc(-c3ccc(C=O)cc3)cc2)CC1	115 to 116
O=C(Oc1cc(F)ccc1Br)c1cc2cc(CCl)ccc2oc1=O	203 to 205
Cc1nc(NCc2ccccc2C)c2nc(-c3ccccc3)cc-2[nH]1	277 to 281
CCCCCCC#CCC#CCC#CCCCCCCC(=O)O	57 to 58
Fc1cccc2[nH]c(-c3ccccc3)cc12	65 to 67

SMILES	melting point [°C]
CN(C)C1(c2ccc(F)cc2)CCC(N2CCC(c3c[nH]c4ccccc34)C2)CC1 (stereo not drawn)	248 to 250
Cc1cccc(NC(=O)NCC(=O)N(CC(=O)N(C)c2ccc(Cl)cc2)c2ccccc2)c1	160
Cc1cc(C)c(N2c3ccccc3Sc3cc(C=O)ccc32)c(C)c1	136 to 140
COc1ccc(-c2cc(=O)c3ccc(OCCCBr)cc3o2)cc1OC	148 to 149
O=C(O)C(=O)c1ccccc1Nc1c(Cl)cccc1Cl	159 to 160
Cc1nnc(-c2cnc3occ(-c4ccccc4Cl)c3c2)o1	141 to 142
O=S1CCON=C1c1cccc(F)c1 (stereo not drawn)	79
CCOP(=O)(OCC)c1sc2ccccc2c1P(=O)(OCC)OCC	67
COc1cc(C(=O)N(C(C)C)C2CCCCC2)ccc1Cn1c(C)nc2ncccc21	201 to 203
CC(C)(CO)CNC(=O)c1nn(C2CCCCO2)cc1NC(=O)c1ccccn1 (stereo not drawn)	189 to 190
CCCCc1nc(CC(=O)O)c(-c2ccco2)o1	62 to 63
Cc1c(-c2cccnc2)sc2nc(N)[nH]c(=O)c12	280 to 290
CCC(=O)C(CCCOc1ccc(OCCCc2c(CC)n[nH]c2CC)cc1)C(=O)CC	135 to 136
CC1(C)C=C(c2cccnc2)c2cc(C#N)ccc2OC1	150
CCCCCCCCCCCCCCOc1ccc(C(=O)NCCc2ccccn2)cc1	80 to 82
CCNC(=O)CCC(=O)c1ccc(NS(C)(=O)=O)cc1	210 to 213
Nc1ccc(C=CC2CSC(=O)NN2)cc1 (stereo not drawn)	188 to 196
CCOC(=O)c1cnc2cc(OCc3ccccc3)c(OCc3ccccc3)cn2c1=O	175
COc1ccc(C2CCc3cc(OC)ccc3C2C#N)cc1 (stereo not drawn)	92
O=[N+]([O-])c1cc(Cl)ccc1I(Cl)Cl	53 to 60
CNc1nc(-c2cccc(NC(=O)c3ccccc3O)c2)c2cc(OC)c(OC)cc2n1	212 to 214
CCOC(=O)C1=C(N)NC(N)=C(C(=O)OCC)C1c1cccc(C(F)(F)F)c1	170
NS(=O)(=O)c1ccc(-c2oc3cc(F)ccc3c(=O)c2-c2ccc(Cl)c(Cl)c2)cc1	190 to 191
